Results taken from patent US11524956B2, “Alkyne substituted quinazoline compound and methods of use” (Newgen Therapeutics, Inc., priority 2011, dated 2022).
Where two headings read alike, the source gives them in different places.

What was measured:
[1] = Rat brain concentration; assay type: in vivo, Sprague Dawley rats; conditions: Sprague Dawley, po, P.O. 5 mg/Kg; for concentration at 2 h / concentration at 4 h / concentration at 24 h: brain, 5 mg/kg
Description: Brain concentration: Three rats are for brain collection (2h) only. Three rats are for brain collection (4 h) only. The rest 3 rats are for plasma (9 time points) and brain collection (24h).
Brain Collection and Tissue Processing: Post blood collection, the brain was first perfused intracardially with ˜150 mL of ice-cold, 0.1 M Phosphate Buffered Saline (PBS) at pH7.4. Then, the dura was removed before weighing the brain. The brain was then dissected into smaller pieces, rinsed twice with ˜10 mL PBS, and then flash frozen on dry ice, and stored at −80° C. before analysis.
Before tissue processing, rat brains were thawed. For the preparation of analytical standards, purchased frozen rat brains (from Pelfreez) were similarly thawed, dissected, rinsed with PBS, and 100 μL of Compound A stock solution (at 500 ng/mL and 1, 2 5, 10, and 50 μg/mL in acetonitrile) was spiked directly into the tissue. Both Compound A dosed and spiked brains then underwent the same processing procedures described below.
Briefly, 2 mL of water was added to each brain before homogenization. Homogenize the brain in 2 to 3 sessions, each approximately 15 sec. The mechanical probe of the homogenizer was cleansed in water, 70% ethanol, and ethyl acetate after each sample. The resulting brain homogenates were then extracted with ethyl acetate three times (14 mL total), and centrifuged to separate the aqueous and organic phases after each extraction. Per brain, pooled organic phase were evaporated under a stream of nitrogen at 40° C. and the residues were reconstituted with 4 mL of mobile phase B. Compound A spiked brain samples in the 4 mL solutions had final concentrations of 12.5, 25, 50, 125, 250, 1250 ng/mL. The reconstituted samples were incubated for ˜15 minutes at 60° C. and, vortexed for 10 minutes to fully dissolve the analytes. The samples were centrifuged, and then further diluted with Mobile phase B (shown below) before LC/MS/MS analysis. Dilute 20 μL of reconstituted samples with 1.5 mL mobile phase B. Transfer and inject supernatant to […] system for analysis.

[2] = tested on: H1975 xenograft; experiment: In vivo efficacy in NCI-H1975 xenograft mouse model; design: species or system Balb/c nude mice; conditions: KU113 10 and 20 mg/kg po qd; afatinib 20 mg/kg; erlotinib 100 mg/kg
Description: H1975 cells were purchased from ATCC were cultured in RPMI1640±10% FBS-1% P/S antibiotics. Balb/c nude mice, female, 6-8 week, 18+2 g were purchased from. Shanghai Laboratory Animal Co. Ltd. The purchased mice were adapted to the environment for 7 days before use, and were housed at 22-25° C. with humidity 40-70%, and light cycle with fluorescent light for 12-hour light (8:00-20:00) 12-hour dark.
Formulation: Erlotinib, afatinib (BIBW2992), and KU113 were dissolved in 2% DMA and 98% (40% HP-β-CD deionized water).
The cancer cells (H1975) were amplified and implanted into the nude mice (right flank) with 5.0×10^6 cells in PBS and 1:1 with matrigel in a total volume of 0.1 ml/mouse. […]
The mice were monitored twice daily for appearance and behavior, and for signs of morbidity and/or mortality. The tumor volume was measured twice a week, and the body weight was measured immediately before measuring the tumor volume throughout the whole study. […]
Tumor sizes were measured twice weekly in two dimensions using a caliper, and the volume was expressed in mm^3 using the formula: V=½×a×b^2 where a and b are the long and short diameters of the tumor, respectively. […]

## CN(C)C/C=C/C(=O)Nc1cc2c(Nc3ccc(F)c(Cl)c3)ncnc2cc1C#C[C@@H]1[C@H]2COC[C@@H]12 [Example 4, (E)-N-(4-(3-chloro-4-fluorophenylamino)-7-(2-((1R,5S,6s)-3-oxa-bicyclo[3.1.0]hexan-6-yl)ethynyl)quinazolin-6-yl)-4-(dimethylamino)but-2-enamide]
[1]; 2 hr, read-out: Brain Conc. (ng/g) Mean
  concentration at 2 h: 156 ng/g
[1]; 2 hr, read-out: Brain Conc. (ng/g) No. 1
  concentration at 2 h: 118 ng/g
[1]; 2 hr, read-out: Brain Conc. (ng/g) No. 2
  concentration at 2 h: 156 ng/g
[1]; 2 hr, read-out: Brain Conc. (ng/g) No. 3
  concentration at 2 h: 194 ng/g
[1]; 4 hr, read-out: Brain Conc. (ng/g) Mean
  concentration at 4 h: 173 ng/g
[1]; 4 hr, read-out: Brain Conc. (ng/g) No. 1
  concentration at 4 h: 127 ng/g
[1]; 4 hr, read-out: Brain Conc. (ng/g) No. 2
  concentration at 4 h: 209 ng/g
[1]; 4 hr, read-out: Brain Conc. (ng/g) No. 3
  concentration at 4 h: 185 ng/g
[1]; 24 hr, read-out: Brain Conc. (ng/g) Mean
  concentration at 24 h: 17.6 ng/g
[1]; 24 hr, read-out: Brain Conc. (ng/g) No. 1
  concentration at 24 h: 26 ng/g
[1]; 24 hr, read-out: Brain Conc. (ng/g) No. 2
  concentration at 24 h: 11 ng/g
[1]; 24 hr, read-out: Brain Conc. (ng/g) No. 3
  concentration at 24 h: 15.8 ng/g
[1]; brain/plasma, 2 hr, read-out: B/P ratio
  Kp at 2 h: 4
[1]; brain/plasma, 4 hr, read-out: B/P ratio
  Kp at 4 h: 4.4
[1]; brain/plasma, 24 hr, read-out: B/P ratio
  Kp at 24 h: 8.7
[2]
  anticancer effect on H1975 xenograft versus comparators: significantly more effective than erlotinib; and comparable with afatinib
